# From PMC3681751, “Identification of a Novel Antimicrobial Peptide from Human Hepatitis B Virus Core Protein Arginine-Rich Domain (ARD)” (PLoS Pathogens, 2013)
# Where two headings read alike, the source gives them in different places. Residues, ends and D or L forms follow the SMILES beside them.
# Key:
# [1] = tested on: tested bacteria and fungi; assay type: cell-based; details: summary of Table 1
# Experimental: (§1) The antimicrobial activities of HBc ARD peptides were tested using a number of bacterial strains from ATCC, including Pseudomonas aeruginosa Migula strain (ATCC 27853, ampicillin-resistant), Pseudomonas aeruginosa Migula strain (ATCC 9027, ampicillin-resistant), Klebsiella pneumoniae strain (ATCC 17593), Escherichia coli strain (ATCC 25922), Staphylococcus aureus subsp. strain (ATCC 25923, methicillin-resistant), Staphylococcus aureus subsp. strain (ATCC 29213, methicillin-resistant), Staphylococcus aureus subsp. strain (ATCC 19636, methicillinresistant), and Candida albicans strain (ATCC 10231).
# (§2) All peptides were purchased from Yao-Hong Biotechnology Inc. (Taipei, Taiwan). Vendors provided data of peptide characterizations, including HPLC and Mass (data not shown). Antimicrobial activity was determined as described with some modifications as detailed below. Bacteria were grown overnight in Mueller–Hinton broth (Difco) at 37°C, and during the mid-logarithmic phase, bacteria were diluted to 10^6 CFU (colony formation unit)/ml in phosphate buffer (10 mM sodium phosphate and 50 mM sodium chloride, pH 7.2). Peptides were serially diluted in the same buffer. Fifty microliter (µl) of bacteria was mixed with fifty µl of peptides at varying concentrations followed by incubation at 37°C for 3 hours without shaking. At the end of incubation, bacteria were placed on Mueller-Hinton broth agar plates, and allowed growth at 37°C overnight for measurement of minimal bactericidal concentration (MBC). […] All peptides were tested in triplicate.
# E. coli (ATCC 25922) = assay type: cell-based, Escherichia coli
# Experimental: as §1, §2
# [2] = tested on: K. pneumonia (ATCC 13884); assay type: cell-based, Klebsiella pneumoniae
# [3] = tested on: P. aeruginosa (ATCC 9027); assay type: cell-based, Pseudomonas aeruginosa; details: for MBC against P. aeruginosa: summary over the P. aeruginosa strains of Table 1 (ATCC 9027, ATCC 27853)
# Experimental: as §1, §2
# [4] = tested on: P. aeruginosa (ATCC 27853); assay type: cell-based, Pseudomonas aeruginosa
# Experimental: as §1, §2
# S. aureus (ATCC 19636) = assay type: cell-based, Staphylococcus aureus
# Experimental: as §1, §2
# S. aureus (ATCC 25923) = assay type: cell-based, Staphylococcus aureus
# Experimental: as §1, §2
# S. aureus (ATCC 29213) = assay type: cell-based, Staphylococcus aureus
# Experimental: as §1, §2
# [5] = 3 h at 37°C in phosphate buffer pH 7.2, triplicate
# [6] = ampicillin-resistant strain, 3 h at 37°C in phosphate buffer pH 7.2, triplicate
# [7] = methicillin-resistant strain, 3 h at 37°C in phosphate buffer pH 7.2, triplicate
Molecule,Activity against all of the tested bacteria and fungi [1],"Antimicrobial activity, MBC (E. coli (ATCC 25922); [5]) [µg/mL]","Antimicrobial activity, MBC [2, 5] [µg/mL]","Antimicrobial activity, MBC ([2]; ATCC 13884, 3 h, pH 7.2) [µM]","Antimicrobial activity, MBC ([3]; ATCC 9027, 3 h, pH 7.2) [µM]","Antimicrobial activity, MBC [3, 6] [µg/mL]",MBC against P. aeruginosa [3],"Antimicrobial activity, MBC ([4]; ATCC 27853, 3 h, pH 7.2) [µM]","Antimicrobial activity, MBC [4, 6] [µg/mL]","Antimicrobial activity, MBC (S. aureus (ATCC 19636); ATCC 19636, 3 h, pH 7.2) [µM]","Antimicrobial activity, MBC (S. aureus (ATCC 19636); [7]) [µg/mL]","MBC against S. aureus (S. aureus (ATCC 19636); text summary over the S. aureus strains of Table 1 (ATCC 19636, 25923, 29213))","Antimicrobial activity, MBC (S. aureus (ATCC 25923); ATCC 25923, 3 h, pH 7.2) [µM]","Antimicrobial activity, MBC (S. aureus (ATCC 25923); [7]) [µg/mL]","Antimicrobial activity, MBC (S. aureus (ATCC 29213); ATCC 29213, 3 h, pH 7.2) [µM]","Antimicrobial activity, MBC (S. aureus (ATCC 29213); [7]) [µg/mL]","Antimicrobial activity, MBC (E. coli (ATCC 25922); ATCC 25922, 3 h, pH 7.2) [µM]"
"HBc162-175: HBc ARD peptide ARD III–IV (SPRRRRSQSPRRRR; UniProt P03147 162-175, looked up, fragment)",no activity,,,,,,,,,,,,,,,,
C[C@@H](O)[C@H](NC(=O)[C@H](CCCNC(=N)N)NC(=O)[C@H](CCCNC(=N)N)NC(=O)[C@H](CCCNC(=N)N)NC(=O)[C@@H]1CCCN1C(=O)[C@H](CO)NC(=O)[C@H](CCCNC(=N)N)NC(=O)CN)C(=O)N1CCC[C@H]1C(=O)N[C@@H](CO)C(=O)N1CCC[C@H]1C(=O)N[C@@H](CCCNC(=N)N)C(=O)N[C@@H](CCCNC(=N)N)C(=O)N[C@@H](CCCNC(=N)N)C(=O)N[C@@H](CCCNC(=N)N)C(=O)N[C@@H](CO)C(=O)N[C@@H](CCC(N)=O)C(=O)N[C@@H](CO)C(=O)N1CCC[C@H]1C(=O)N[C@@H](CCCNC(=N)N)C(=O)N[C@@H](CCCNC(=N)N)C(=O)N[C@@H](CCCNC(=N)N)C(=O)N[C@@H](CCCNC(=N)N)C(=O)O [HBc153-175] (H-GRSPRRRTPSPRRRRSQSPRRRR-OH; N-terminus and C-terminus assumed),,46.64,93.28,> 32,2,5.8,strong activity,2,5.8,,,,,,,,
"HBc147-159: HBc ARD peptide ARD I–II (TVVRRRGRSPRRR; UniProt P03147 147-159, looked up, fragment)",no activity,,,,,,,,,,,,,,,,
CC(C)[C@H](NC(=O)[C@@H](NC(=O)[C@@H](N)[C@@H](C)O)C(C)C)C(=O)N[C@@H](CCCNC(=N)N)C(=O)N[C@@H](CCCNC(=N)N)C(=O)N[C@@H](CCCNC(=N)N)C(=O)NCC(=O)N[C@@H](CCCNC(=N)N)C(=O)N[C@@H](CO)C(=O)N1CCC[C@H]1C(=O)N[C@@H](CCCNC(=N)N)C(=O)N[C@@H](CCCNC(=N)N)C(=O)N[C@@H](CCCNC(=N)N)C(=O)N[C@H](C(=O)N1CCC[C@H]1C(=O)N[C@@H](CO)C(=O)N1CCC[C@H]1C(=O)N[C@@H](CCCNC(=N)N)C(=O)N[C@@H](CCCNC(=N)N)C(=O)N[C@@H](CCCNC(=N)N)C(=O)N[C@@H](CCCNC(=N)N)C(=O)O)[C@@H](C)O [HBc147-167] (H-TVVRRRGRSPRRRTPSPRRRR-OH; N-terminus and C-terminus assumed),,> 85,21.3,,> 32,> 85,,> 32,> 85,,,,,,,,
C[C@@H](O)[C@H](NC(=O)[C@H](CCCNC(=N)N)NC(=O)[C@H](CCCNC(=N)N)NC(=O)[C@@H](N)CCCNC(=N)N)C(=O)N1CCC[C@H]1C(=O)N[C@@H](CO)C(=O)N1CCC[C@H]1C(=O)N[C@@H](CCCNC(=N)N)C(=O)N[C@@H](CCCNC(=N)N)C(=O)N[C@@H](CCCNC(=N)N)C(=O)N[C@@H](CCCNC(=N)N)C(=O)N[C@@H](CO)C(=O)N[C@@H](CCC(N)=O)C(=O)N[C@@H](CO)C(=O)N1CCC[C@H]1C(=O)N[C@@H](CCCNC(=N)N)C(=O)N[C@@H](CCCNC(=N)N)C(=O)N[C@@H](CCCNC(=N)N)C(=O)N[C@@H](CCCNC(=N)N)C(=O)N[C@@H](CO)C(=O)O [HBc157-176] (H-RRRTPSPRRRRSQSPRRRRS-OH; N-terminus and C-terminus assumed),,> 83.36,> 83.36,> 32,2,5.2,strong activity,2,5.2,,,,,,,,
"HBc164-176: HBc ARD peptide ARD III–IV (RRRRSQSPRRRRS; UniProt P03147 164-176, looked up, fragment)",no activity,,,,,,,,,,,,,,,,
C[C@@H](O)[C@H](NC(=O)[C@H](CCCNC(=N)N)NC(=O)[C@H](CCCNC(=N)N)NC(=O)[C@H](CCCNC(=N)N)NC(=O)[C@@H]1CCCN1C(=O)[C@@H](N)CO)C(=O)N1CCC[C@H]1C(=O)N[C@@H](CO)C(=O)N1CCC[C@H]1C(=O)N[C@@H](CCCNC(=N)N)C(=O)N[C@@H](CCCNC(=N)N)C(=O)N[C@@H](CCCNC(=N)N)C(=O)N[C@@H](CCCNC(=N)N)C(=O)N[C@@H](CO)C(=O)N[C@@H](CCC(N)=O)C(=O)N[C@@H](CO)C(=O)N1CCC[C@H]1C(=O)N[C@@H](CCCNC(=N)N)C(=O)N[C@@H](CCCNC(=N)N)C(=O)N[C@@H](CCCNC(=N)N)C(=O)N[C@@H](CCCNC(=N)N)C(=O)O [HBc155-175] (H-SPRRRTPSPRRRRSQSPRRRR-OH; N-terminus and C-terminus assumed),,> 86.46,> 86.46,> 32,2,5.4,strong activity,16,43.23,,,,,,,,
CC(C)[C@H](NC(=O)[C@@H](NC(=O)[C@@H](N)[C@@H](C)O)C(C)C)C(=O)N[C@@H](CCCNC(=N)N)C(=O)N[C@@H](CCCNC(=N)N)C(=O)N[C@@H](CCCNC(=N)N)C(=O)NCC(=O)N[C@@H](CCCNC(=N)N)C(=O)N[C@@H](CO)C(=O)N1CCC[C@H]1C(=O)N[C@@H](CCCNC(=N)N)C(=O)N[C@@H](CCCNC(=N)N)C(=O)N[C@@H](CCCNC(=N)N)C(=O)N[C@H](C(=O)N1CCC[C@H]1C(=O)N[C@@H](CO)C(=O)N1CCC[C@H]1C(=O)N[C@@H](CCCNC(=N)N)C(=O)N[C@@H](CCCNC(=N)N)C(=O)N[C@@H](CCCNC(=N)N)C(=O)N[C@@H](CCCNC(=N)N)C(=O)N[C@@H](CO)C(=O)N[C@@H](CCC(N)=O)C(=O)N[C@@H](CO)C(=O)N1CCC[C@H]1C(=O)N[C@@H](CCCNC(=N)N)C(=O)N[C@@H](CCCNC(=N)N)C(=O)N[C@@H](CCCNC(=N)N)C(=O)N[C@@H](CCCNC(=N)N)C(=O)O)[C@@H](C)O [HBc147-175] (H-TVVRRRGRSPRRRTPSPRRRRSQSPRRRR-OH; N-terminus and C-terminus assumed),,3.68,3.68,1,0.5,1.84,,1,3.68,> 32,> 117.86,lost the activity,> 32,> 117.86,> 32,> 117.86,1
C[C@@H](O)[C@H](NC(=O)[C@H](CCCNC(=N)N)NC(=O)[C@H](CCCNC(=N)N)NC(=O)[C@@H](N)CCCNC(=N)N)C(=O)N1CCC[C@H]1C(=O)N[C@@H](CO)C(=O)N1CCC[C@H]1C(=O)N[C@@H](CCCNC(=N)N)C(=O)N[C@@H](CCCNC(=N)N)C(=O)N[C@@H](CCCNC(=N)N)C(=O)N[C@@H](CCCNC(=N)N)C(=O)N[C@@H](CO)C(=O)N[C@@H](CCC(N)=O)C(=O)N[C@@H](CO)C(=O)N1CCC[C@H]1C(=O)N[C@@H](CCCNC(=N)N)C(=O)N[C@@H](CCCNC(=N)N)C(=O)N[C@@H](CCCNC(=N)N)C(=O)N[C@@H](CCCNC(=N)N)C(=O)O [HBc157-175] (H-RRRTPSPRRRRSQSPRRRR-OH; N-terminus and C-terminus assumed),,> 80.58,> 80.58,> 32,2,,strong activity,> 32,> 80.58,,,,,,,,
